Values joined by “and” are separate entries in the source; they are usually repeats but may differ in a detail not shown here. Equal values may be shown once.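 Protocol summary: plate cells (96-well), add compound at 5 concentrations, incubate 48 h, interpolate endpoints linearly. GI50 = concentration required for 50% inhibition of growth. The concentration for full growth arrest is given as TGI.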
Columns and labels:
Assay in all cases: NCI-60 cell line screen, 48 h
SN12C renal = test system: SN12C renal
COLO 205 colon = test system: COLO 205 colon
ACHN renal = test system: ACHN renal
K-562 leukemia = test system: K-562 leukemia
786-0 renal = test system: 786-0 renal
MALME-3M melanoma = test system: MALME-3M melanoma
HOP-92 NSCLC = test system: HOP-92 NSCLC
HL-60(TB) leukemia = test system: HL-60(TB) leukemia
TK-10 renal = test system: TK-10 renal
UACC-257 melanoma = test system: UACC-257 melanoma

| SMILES | GI50 (SN12C renal) | TGI (SN12C renal) | GI50 (COLO 205 colon) | TGI (COLO 205 colon) | GI50 (ACHN renal) | TGI (ACHN renal) | GI50 (K-562 leukemia) | TGI (K-562 leukemia) | GI50 (786-0 renal) | TGI (786-0 renal) | GI50 (MALME-3M melanoma) | TGI (MALME-3M melanoma) | GI50 (HOP-92 NSCLC) | TGI (HOP-92 NSCLC) | GI50 (HL-60(TB) leukemia) | GI50 (TK-10 renal) | TGI (TK-10 renal) | GI50 (UACC-257 melanoma) | TGI (UACC-257 melanoma) | TGI (HL-60(TB) leukemia) [µM] |
| --- | --- | --- | --- | --- | --- | --- | --- | --- | --- | --- | --- | --- | --- | --- | --- | --- | --- | --- | --- | --- |
| CCCCCN(CCCCC)CC(O)c1cc2c(c3ccccc13)CCCC2 (stereo unspecified) | 6.12 µM and 13.8 µM | 19.8 µM and 30 µM | 3.4 µM and 13.7 µM | 13.8 µM and 80.5 µM | 5.03 µM and 8.43 µM | 17.9 µM and 22.6 µM | 2.56 µM and 16.3 µM | 10.9 µM and > 100 µM | 3.75 µM and 6.51 µM | 13 µM and 19.1 µM | 3.71 µM and 10.4 µM | 15.6 µM and 24.6 µM | 2.5 µM and 3.53 µM | 8.94 µM and 17.1 µM | 2.53 µM and 7.51 µM | 10.6 µM and 18.2 µM | 22.9 µM and 37.9 µM | 4.88 µM and 13.8 µM | 17.5 µM and 30.2 µM |  |
| Clc1ccc2c(c1)-c1ccccc1C1=NCCN12 | 2.41 µM | 12.6 µM | 1.61 µM | 3.54 µM | 1.12 µM | 9.3 µM | 2.2 µM | 7.61 µM | 1.66 µM | 3.52 µM | 1.77 µM | 4.17 µM | 1.19 µM | 3.29 µM | 2.43 µM | 1.87 µM | 5.51 µM | 1.54 µM | 3.3 µM | 5.47 |
| N#Cc1nc2cc(F)c(F)cc2nc1-c1ccc(Cl)cc1 | 6.83 µM | 34.8 µM | 26.9 µM | > 100 µM | 10.4 µM | 43.8 µM | 2.99 µM | > 27.8 µM | 16.3 µM | 43.9 µM | 15.8 µM | 39.1 µM | 0.0614 µM | 15 µM | 3.43 µM | 22.4 µM | 67.3 µM | 22.1 µM | > 58.3 µM | > 28.2 |
| Oc1ccc(N=Nc2ccc(N=Nc3ccccc3)cc2)cc1 | 3.95 µM | 17.2 µM | 8.01 µM | 24.4 µM | 1.49 µM | 5.59 µM | 0.615 µM | 12.7 µM | 1.32 µM | 6.05 µM | 11.6 µM | 25.7 µM | 6.97 µM | 28.1 µM | 0.366 µM | 1.98 µM | 5.55 µM | 4.23 µM | 17 µM | 16.1 |
| C[C@@H]1C[C@@]2(O[C@@H]2C)C(=O)O[C@@H]2CCN3CC=C(COC(=O)[C@]1(C)O)[C@H]23 |  | > 100 µM |  | > 100 µM |  | > 100 µM |  | > 100 µM |  | > 100 µM |  | > 100 µM |  | > 100 µM |  |  | > 100 µM |  | > 100 µM | > 100 |
| c1ccc(SC(CCCCOC2CCCCO2)Sc2ccccc2)cc1 (stereo unspecified) |  | > 100 µM |  | > 100 µM |  | > 100 µM |  | > 100 µM |  | > 100 µM |  | > 100 µM |  | > 100 µM |  |  | > 100 µM |  | > 100 µM | 47.5 |
| Cc1nn(-c2nc3ccccc3[nH]2)c2c1C(c1ccc3c(c1)OCO3)CC(=O)N2 (stereo unspecified) | 2.77 µM | 9.77 µM | 2.11 µM | 4.15 µM | 4.07 µM | > 100 µM | 3.58 µM | > 100 µM | 3.65 µM | 21.9 µM | 2.12 µM | 6.04 µM | 2.66 µM | 7.14 µM | 2.84 µM | 3.14 µM | > 25.8 µM | 2.41 µM | 6.96 µM | 7.74 |
| NCCCCN(Cc1nc2ccccc2[nH]1)[C@H]1CCCc2cccnc21 | 14.9 µM | > 100 µM | 7.65 µM | 26.2 µM | 26.3 µM | > 100 µM | 12.6 µM | 43.3 µM | 21.2 µM | > 77.1 µM | 13.2 µM | 28.2 µM | 2.12 µM | 27.1 µM | 5.34 µM | 25.3 µM | > 75.3 µM | 15.3 µM | 31.4 µM | 26.7 |
| C/C(=N\O)C(CN1CCCCC1)C(c1ccccc1)c1c(O)c2ccccc2oc1=O (stereo unspecified) |  | > 100 µM |  | > 100 µM |  | > 100 µM |  | > 10 µM |  | > 100 µM |  | > 100 µM |  | > 100 µM |  |  | > 100 µM |  | > 100 µM | > 10 |
| [C-]#[N+]C(C)(C)C[C@H]1CC(C)C2CCC(C)C3([N+]#[C-])CCC(=C)C1[C@H]23 (stereo partly specified) |  | 8.85 µM |  | 0.65 µM |  | 6.58 µM |  | > 50 µM |  | 15.3 µM |  | 25.3 µM |  | 0.256 µM |  |  | 21.4 µM |  | 10.9 µM | 12.6 |
| CS(=O)(=O)Nc1cc(-c2ccc3ncnc(Nc4ccc5c(cnn5Cc5ccccc5F)c4)c3c2)cnc1Cl | 1.13 µM | > 100 µM | 2.39 µM | 9.09 µM | 3.24 µM | > 52.9 µM | 2.27 µM | > 100 µM | 1.84 µM | > 100 µM | 0.466 µM | 3 µM | 0.131 µM |  | 1.02 µM | 1.28 µM | 5.44 µM | 1.51 µM | 9 µM | 6.02 |
| CS/C(c1ccccc1)=[N+](/C)[O-] |  | > 100 µM |  | > 61.5 µM |  | > 100 µM |  | > 100 µM |  | > 100 µM |  | > 100 µM |  | > 100 µM |  |  | > 100 µM |  | > 100 µM | > 100 |
| S=C(Nc1ccccc1)N(Cc1ccccc1)c1ccccc1 |  | > 100 µM |  | 51.8 µM |  | > 100 µM |  | > 100 µM |  | > 100 µM |  | 37.2 µM |  | > 100 µM |  |  | 80.3 µM |  | 54.6 µM | > 100 |
| O=Cc1ccc(O)c2ncccc12 | 3.81 µM | > 100 µM | 3.71 µM | 17.5 µM | 12.9 µM | > 100 µM | 3.29 µM | > 100 µM | 13.4 µM | 73.2 µM | 3.62 µM | 30.4 µM | 5.01 µM | > 73.5 µM |  | 17.4 µM | 52.5 µM | 3.45 µM | > 53.1 µM | > 100 |
| COc1cc(/C=C/C(=O)c2c(C)n([O-])c3ccc(Cl)cc3[n+]2=O)cc(OC)c1OC | 67.6 µM | > 100 µM | > 100 µM | > 100 µM | > 100 µM | > 100 µM | 15.2 µM | > 100 µM | 33.1 µM | > 100 µM | 14.1 µM | 35.3 µM | 0.0718 µM | 3.53 µM | > 100 µM | 26.5 µM | 97.7 µM | 49.6 µM | > 100 µM | > 100 |
| O=C1/C(=C/c2ccc(Cl)cc2)COc2ccc(O)c(O)c21 | 0.724 µM | 2.57 µM | 1.79 µM | 3.31 µM | 1.14 µM | 2.36 µM | 0.321 µM | > 100 µM | 1.42 µM | 5.17 µM | 1.47 µM | 3.47 µM | 2.01 µM | 8.77 µM | 0.28 µM | 1.71 µM | 3.19 µM | 1.65 µM | 3.88 µM | 0.827 |
| COc1cc(C(=O)CC2(O)C(=O)Nc3c(Cl)cc(Cl)cc32)ccc1O (stereo unspecified) |  | > 100 µM |  | 83.5 µM |  | > 100 µM |  | > 100 µM |  | > 100 µM |  | > 100 µM |  | > 100 µM |  |  | > 100 µM |  | > 100 µM | > 100 |
| COc1cc(/C=C2/C(=O)NC(Cc3cc(OC)c(OC)c(C)c3OC)C(=O)N2Cc2ccccc2)c(OC)c(C)c1OC (stereo unspecified) |  | > 100 µM |  | 35 µM |  | > 100 µM |  | > 100 µM |  | > 100 µM |  | > 100 µM |  | 71.9 µM |  |  | > 100 µM |  | > 100 µM | 53.3 |
| O=C(CCCCCCC(=O)Nc1ccc2c(c1)/C(=C/c1ccc[nH]1)C(=O)N2)NO | 2.07 µM | 26.5 µM | 0.245 µM | 1.4 µM | 0.904 µM | 4.67 µM | 0.333 µM | > 100 µM | 2.37 µM | 26.5 µM | 0.0758 µM | 35.4 µM | 0.317 µM | 2.76 µM | 0.464 µM | 0.795 µM | 7.78 µM | 0.353 µM | 5.44 µM | > 100 |
| COc1ccc2nc(C)cc(Nc3ccccc3O)c2c1 | 38.2 µM | > 100 µM | 18.3 µM | 36.5 µM | 32.1 µM | > 100 µM | 17.8 µM | 64.8 µM | 18.1 µM | 42.1 µM | 27.3 µM | 61.2 µM | 10.9 µM | 61.2 µM | 21 µM | 50.6 µM | > 100 µM | 19 µM | 43.6 µM | 48 |
| COC(=O)[C@@]1(O)C[C@H]2O[C@]1(C)n1c3ccccc3c3c4c(c5c6ccccc6n2c5c31)C(=O)NC4 | 0.074 µM | 2.15 µM | 0.231 µM | 0.692 µM | 0.0368 µM | 3.07 µM | 0.0397 µM | 1.28 µM | 0.312 µM | 1.67 µM | 0.186 µM | 1.52 µM | 0.188 µM | 0.88 µM | 0.868 µM | 0.0284 µM | 1.39 µM | 0.527 µM | 3.33 µM |  |
| Cc1ccc(C2=C(c3ccccc3)C(Br)(c3ccccc3)C(c3ccccc3)=C2c2ccc(C)cc2)cc1 |  | > 100 µM |  | > 100 µM |  | > 100 µM |  | > 100 µM |  | > 100 µM |  | > 100 µM |  | > 100 µM |  |  | > 100 µM |  | > 100 µM | > 100 |
| O=P1(O)c2ccccc2Nc2cc(C(F)(F)F)ccc21 |  | > 100 µM |  | > 100 µM |  | > 100 µM |  | > 100 µM |  | > 100 µM |  | > 100 µM |  | > 100 µM |  |  | > 100 µM |  | > 100 µM | > 100 |
